The record followed here is publication PMC8589421, “Impact of Type II LRRK2 inhibitors on signaling and mitophagy” (Biochemical Journal, 2021).

pIC50: −log10 of the molar value. Like-named read-outs stand apart in the source and are kept apart here.

Series [1] relates to Dundee panel of 140 protein kinases. Put plainly: Kinase profiling. Format: biochemical. From the text: […] Results for each kinase are presented as the mean kinase activity ±S.D. for an assay undertaken in duplicate relative to a control kinase assay in which the inhibitor was omitted. Abbreviations and assay conditions used for each kinase are available (http://www.kinase-screen.mrc.ac.uk/services/premier-screen).

The test system of series [2] is LRRK2 mediated phosphorylation of Rab10 at Thr73. Put plainly: Rab10 Thr73 phospho-immunoblot in wild-type MEFs. It is filed as cell-based, mouse. The settings on record: Mus musculus, 2 h. As for the experimental part:
(§1) Wild-type and homozygous LRRK2 [R1441C] […] All cells were grown at 37°C, 5% (by vol) CO2 in a humidified atmosphere and regularly tested for mycoplasma contamination.
(§2) Inhibitors were dissolved in dimethyl sulfoxide (DMSO) (Sigma, #D2650). The inhibitors were diluted 1000× into cell medium. The equivalent volume of DMSO was added to the minus inhibitor controls. Experiments were performed in six-well plates, 10 cm dishes or 15 cm dishes depending on the amount of cell extract required.
(§3) Lysates were incubated on ice for 30 min and clarified by centrifugation at 20 800×g at 4°C for 20 min. Supernatants were quantified by Bradford assay (Bio-Rad Protein Assay Dye Reagent Concentrate #5000006) and samples prepared in 1× lithium dodecyl sulfate sample buffer final concentration (NuPage LDS Sample buffer 4× Invitrogen, #NP0008). When not deployed immediately, lysates were snap-frozen in liquid nitrogen and stored at −80°C until use.
(§4) Cell extracts were mixed with a quarter of a volume of NuPage LDS Sample buffer 4× Invitrogen and heated at 95°C for 5 min. […] At the end of electrophoresis, proteins were electrophoretically transferred onto the nitrocellulose membrane (GE Healthcare, Amersham Protran Supported 0.45 µm NC) at 100 V for 90 min on ice in the transfer buffer (48 mM Tris–HCl and 39 mM glycine supplemented with 20% methanol). Transferred membrane was blocked with 5% (w/v) skim milk powder dissolved in TBS-T [20 mM Tris–HCl, pH 7.5, 150 mM NaCl and 0.1% (v/v) Tween 20] at room temperature for 1 h. The membrane was typically cropped into three pieces, namely the ‘top piece’ (from the top of the membrane to 75 kDa), the ‘middle piece’ (between 75 and 30 kDa) and the ‘bottom piece’ (from 30 kDa to the bottom of the membrane). All primary antibodies were used at 1 μg/ml final concentration and incubated in TBS-T containing 5% (by mass) bovine serum albumin with exception of α-tubulin and GAPDH antibodies that were diluted 1 : 5000 and 1 : 2000, respectively. The top piece was incubated with the indicated rabbit anti-LRRK2 phosphorylation site antibody multiplexed with mouse anti-LRRK2 C-terminus total antibody. The middle piece was incubated with mouse anti-GAPDH or anti-α-tubulin antibody. The bottom pieces were incubated with indicated total and phospho-Rab antibodies. Membranes were incubated in primary antibody overnight at 4°C. Prior to secondary antibody incubation, membranes were washed three times with TBS-T for 10 min each. […] Membranes were washed with TBS-T for three times with a 10 min incubation for each wash. Protein bands were acquired via near infrared fluorescent detection using the Odyssey CLx imaging system and quantified using the Image Studio software.

Series [3] has as its system LRRK2 at Ser935. Put plainly: LRRK2 Ser935 phospho-immunoblot in wild-type MEFs. The settings on record: MEFs, 2 h dose response. It is filed as cell-based, mouse. The procedure: as §1, §2, §3, §4
For series [4], the system named is mouse embryonic fibroblast cells (MEFs). Put plainly: Cell morphology and attachment of MEFs. It is filed as cell-based.
Series [5] concerns LRRK2 Ser935 phosphorylation, LRRK2[R1441C]. Nature of the series: LRRK2 Ser935 phospho-immunoblot in LRRK2[R1441C] knock-in MEFs. It is filed as cell-based, mouse. Conditions: dose and time dependent. The procedure: (§5) Wild-type and homozygous LRRK2 [R1441C] (Jax, stock number: 009346), LRRK2[G2019S] Taconic, (model 13940) and LRRK2 [A2016T] (Jax, stock number: 021828)[7] knock-in MEF cells were isolated from littermate-matched mouse embryos on a C57BL/6J background at day E12.5 as described previously. MEFs were grown in Dulbecco's modified Eagle medium (DMEM GIBCO, #11960-085) containing 10% (by vol) fetal bovine serum (FBS), 2 mM L-glutamine, 100 U/ml penicillin, and […] streptomycin supplemented with non-essential amino acids and 1 mM sodium pyruvate. Human embryonic kidney 293 (HEK293) (#ATCC CRL-1573) and HeLa (#ATCC CCL-2) cells were purchased from American Tissue Culture Collection (ATCC) and cultured in DMEM containing 10% (by vol) FBS, 2 mM L-glutamine, 100 U/ml penicillin, and […] streptomycin. All cells were grown at 37°C, 5% (by vol) CO2 in a humidified atmosphere and regularly tested for mycoplasma contamination.
as §2
as §3, with “Cells were lysed in an ice-cold lysis buffer containing 50 mM Tris–HCl, pH 7.4, 1% (by vol) Triton X-100, 10% (by vol) glycerol, 150 mM NaCl, 1 mM sodium orthovanadate, 50 mM NaF, 10 mM 2-glycerophosphate, 5 mM sodium pyrophosphate, 1 µg/ml microcystin-LR, and cOmplete EDTA-free protease inhibitor cocktail (Roche, #11836170001). Lysates” for “Lysates”
Cell extracts were mixed with a quarter of a volume of NuPage LDS Sample buffer 4× Invitrogen and heated at 95°C for 5 min. […] At the end of electrophoresis, proteins were electrophoretically transferred onto the nitrocellulose membrane (GE Healthcare, Amersham Protran Supported 0.45 µm NC) at 100 V for 90 min on ice in the transfer buffer (48 mM Tris–HCl and 39 mM glycine supplemented with 20% methanol). Transferred membrane was blocked with 5% (w/v) skim milk powder dissolved in TBS-T [20 mM Tris–HCl, pH 7.5, 150 mM NaCl and 0.1% (v/v) Tween 20] at room temperature for 1 h. […]

The test system of series [6] is Rab10 phosphorylation, LRRK2[A2016T]. Put plainly: Rab10 Thr73 phospho-immunoblot in inhibitor resistant LRRK2[A2016T] knock-in MEFs. It is filed as cell-based, mouse. Conditions: 2 h, up to 3 µM. The procedure: as §5, §2
(§6) Cells were lysed in an ice-cold lysis buffer containing 50 mM Tris–HCl, pH 7.4, 1% (by vol) Triton X-100, 10% (by vol) glycerol, 150 mM NaCl, 1 mM sodium orthovanadate, 50 mM NaF, 10 mM 2-glycerophosphate, 5 mM sodium pyrophosphate, 1 µg/ml microcystin-LR, and cOmplete EDTA-free protease inhibitor cocktail (Roche, #11836170001). Lysates were incubated on ice for 30 min and clarified by centrifugation at 20 800×g at 4°C for 20 min. Supernatants were quantified by Bradford assay (Bio-Rad Protein Assay Dye Reagent Concentrate #5000006) and samples prepared in 1× lithium dodecyl sulfate sample buffer final concentration (NuPage LDS Sample buffer 4× Invitrogen, #NP0008). When not deployed immediately, lysates were snap-frozen in liquid nitrogen and stored at −80°C until use. […]

The subject of series [7] is Rab10 pThr73, LRRK2 [R1441C]. Nature of the series: Rab10 Thr73 phospho-immunoblot in LRRK2[R1441C] knock-in MEFs. Format: cell-based, mouse. Conditions: Mus musculus, 2 h, read-out: LRRK2 [R1441C] Rab10 pThr73 IC50. As for the experimental part:
as §5, §2, §6

Series [8] has as its system Rab10 pThr73, LRRK2 [G2019S]. Put plainly: Rab10 Thr73 phospho-immunoblot in LRRK2[G2019S] knock-in MEFs. It is filed as cell-based, mouse. Conditions: Mus musculus, 2 h, read-out: LRRK2 [G2019S] Rab10 pThr73 IC50. As for the experimental part:
as §5, §2, §6

`Cc1ccc(C(=O)Nc2ccc(CN3CCN(C)CC3)c(C(F)(F)F)c2)cc1C#Cc1cnc2cccnn12` [Ponatinib]: the “number of the 140 kinases assayed suppressed by over 80%” value in series [1] (0.1 μM inhibitor) is 14; in series [1] (1 μM inhibitor), 20. For the same molecule, the inhibition at 10 µM in series [2] (wild-type MEFs, 10 μM) was around 50%. The “effect on LRRK2 Ser935 phosphorylation” value in series [3] was “without affecting Ser935 phosphorylation”. Besides, the “concentration that impacted cell morphology and attachment” value in series [4] is recorded as “above 10 μM”.
`CNC(=O)c1cc(Oc2ccc(NC(=O)Nc3cc(C(C)(C)C)nn3-c3ccc4ncccc4c3)c(F)c2)ccn1` [Rebastinib]: the “number of the 140 kinases assayed suppressed by over 80%” value in series [1] (1 μM inhibitor) worked out at 18. Further, the pIC50 was 6.32 in series [2] (read-out: LRRK2 WT Rab10 pThr73 IC50, wild type MEFs littermate matched to LRRK2[G2019S], 2 h, panel (B)); 6.27 in series [2] (read-out: LRRK2 WT Rab10 pThr73 IC50, wild type MEFs littermate matched to LRRK2[R1441C], 2 h, panel (A)); 5.88 in series [7]; 5.97 in series [8]. Also, the “effect on LRRK2 Ser935 phosphorylation” value in series [3] is on record as “did not induce dephosphorylation of Ser935”. The “effect on Ser935 phosphorylation in LRRK2[R1441C] knock-in cells” value in series [5] is reported as “rescue Ser935 phosphorylation”. The “effect of A2016T mutation on inhibition of Rab10 phosphorylation” value in series [6] is “markedly blocked”.
With `C[C@@H]1CN(c2cc(-c3n[nH]c4ccc(OC5(C)CC5)cc34)ncn2)C[C@H](C)O1` [MLi-2], the “effect on LRRK2 Ser935 phosphorylation” value in series [3] is reported as “complete dephosphorylation”. The “effect of A2016T mutation on inhibition of Rab10 phosphorylation” value in series [6] is listed as “markedly suppressed inhibition of Rab10 phosphorylation”.
